For assay [1], the system named is brain function development of infants. Kind of assay: Spearman correlation of NAD-related substance concentration in 1-month breast milk with ASQ-3 developmental scores at 24 months. In kind it is in vivo, human. Conditions: for Correlation with concentration, r (Spearman): ASQ-3 at 24 months, 1-month breast milk; for Correlation of concentration in breast milk with developmental scores (in words): p<0.05. As for the experimental part: (§1) The method was specifically as follows.
Concentrations of NAD-related substances in 1-month breast milk ingested by 150 infants of 1 to 6 months old, who were fully breastfed, were determined by LC-MS/MS.
Development of the infants was assessed at the age of 24 months using ASQ (registered trademark)-3 (Japanese version of ASQ (registered trademark)-3 infant developmental screening questionnaires, Igaku Shoin, 2021). The relationship between the amount of each NAD-related substance ingested by the infants and their development was evaluated by using Spearman's rank-order correlation coefficient.

The test system is the same in assay [2]. Kind of assay: Between-group comparison (Mann-Whitney U) of ASQ-3 developmental scores, high NMN vs low NMN breast milk. Type of assay: in vivo, human. As for the experimental part:
as §1
By using the data on the contents of NMN in breast milk and the developmental scores of the infants shown in Method 1, the subject infants were divided into two groups according to the concentration of NMN in breast milk, and the groups were compared according to Mann-Whitney's U-test. In this study, the boundary concentration of the two groups was set to be 1.922 μg/mL (mean NMN concentration in 1-month breast milk−1×standard deviation) or 3.089 μg/mL (mean NMN concentration in 1-month breast milk). That is, the group comparison was performed between two groups of NMN concentrations in the consumed breast milk of […] (high NMN group) and <1.922 μg/mL (low NMN group), or two groups of the same of 3.089 μg/mL (high NMN group) and <3.089 μg/mL (low NMN group).

The subject of a further assay is old rats. Conditions: each alone or in combination; cited from earlier work.
Another assay deals with aged mice. The following applies: cited from earlier work.
The test system of assay [3] is mouse model of drug-induced depression. Conditions: cited from earlier work.
The subject of a further assay is mouse. Conditions: aging; cited from earlier work.
The subject of another assay is piglets. The following applies: cited from earlier work.
For the next assay, the system named is mice. Conditions: cited from earlier work.

“And” between values parts separate entries of the source, which are not always exact repeats. Identical values can stand only once.

For the molecule `O=C(O)c1cccnc1` [NA, nicotinic acid], the “Correlation with concentration, r (Spearman)” value (from here on “Correlation with concentration”) is 0.025 in assay [1] (Communication, 150 infants); 0.095 in assay [1] (Gross motor); 0.147 in assay [1] (Problem solving); 0.154 in assay [1] (Social-individual). Besides, the “Correlation of concentration in breast milk with developmental scores (in words)” value (“Correlation of concentration” below) in assay [1] (gross motor) is “positive correlation”.

As for `NC(=O)c1ccc[n+]([C@@H]2O[C@H](COP(=O)([O-])OP(=O)(O)OC[C@H]3O[C@@H](n4cnc5c(N)ncnc54)[C@H](O)[C@@H]3O)[C@@H](O)[C@H]2O)c1` [NAD, nicotinamide adenine dinucleotide], the “Correlation with concentration” value was determined as 0.025 in assay [1] (Fine motor), 0.077 in assay [1] (Gross motor), 0.056 in assay [1] (Problem solving) and 0.048 in assay [1] (Social-individual).

For the molecule `NC(=O)c1ccc[n+]([C@@H]2O[C@H](COP(=O)([O-])O)[C@@H](O)[C@H]2O)c1` [NMN, nicotinamide mononucleotide], the “Development of the infants, high NMN group vs low NMN group” value in assay [2] (fine motor, boundary value 3.089 μg/mL, FIG. 2) was “significantly accelerated”; in assay [2] (personal-social, boundary value 1.922 μg/mL, FIG. 1), “significantly accelerated”; in assay [2] (personal-social, boundary value 3.089 μg/mL, FIG. 2) it was “significantly accelerated”; in assay [2] (problem solving, boundary value 3.089 μg/mL, FIG. 2), “significantly accelerated”. Besides, the “NMN level in the composition at which infants' brain functions are significantly enhanced” value in assay [2] (in vivo) is at least 1.922 µg/mL. The “Learning and memory abilities” value in the assay with old rats was “improves their learning and memory abilities”. For the same molecule, the Neurovascular coupling entry in the assay on aged mice was “may promote neurovascular coupling”. Besides, the “Correlation with concentration” value in assay [1] (Communication, 150 infants) was 0.199; in assay [1] (Fine motor), 0.208; in assay [1] (Gross motor), 0.186; in assay [1] (Problem solving), 0.288; in assay [1] (Social-individual), 0.269 and 0.259. Besides, the “Correlation of concentration” value in assay [1] (all five developmental areas at 24 months) was “significant positive correlation”. The “Effectiveness in promoting brain development in infants among the NAD-related substances” value in assay [1] (in vivo) is reported as “most effective”. For the same molecule, the “Correlation between amount in breast milk ingested from 1 to 6 months of age and development by ASQ-3 24-month (in words)” value in assay [1] (overall) is “high correlation”. Further, the Drug-induced depression-like symptoms entry in assay [3] is given as “improves drug-induced depression-like symptoms”. The “Hypersensitive behaviors to fear and anxiety” value in the assay on mouse was “may alleviate hypersensitive behaviors to fear and anxiety”.

For the molecule `NC(=O)c1ccc[n+]([C@@H]2O[C@H](CO)[C@@H](O)[C@H]2O)c1` [NR, nicotinamide riboside], the “Short-chain fatty acids in feces” value with piglets is “increased levels”. In addition, the “Correlation with concentration” value in assay [1] (Communication, 150 infants) was found to be 0.017; in assay [1] (Fine motor), 0.085; in assay [1] (Gross motor), 0.082; in assay [1] (Social-individual), 0.117. For the same molecule, the “Correlation of concentration” value in assay [1] (problem solving) was “positive correlation”. In the assay on mice (NR supplementation of mothers), the “BDNF level in breast milk” value is “twice as high”. In addition, the “Fat and brain size of offspring at weaning” value with mice (mice raised by supplemented mothers) is “lower fat and larger brains”. For the same molecule, the “Milk secretion and production of BDNF” value in the assay on mice (mouse, in vivo) was “stimulates milk secretion”.

In the case of `COc1ccc2[nH]cc(CCNC(C)=O)c2c1` [melatonin], the “Learning and memory abilities” value in the assay with old rats was “improves their learning and memory abilities”.
